Results reported in US20130225694A1, “COMPOSITIONS AND METHODS OF INHIBITING RETINAL DEGENERATION” (Oklahoma Medical Research Foundation, priority 2012, published 2013).
Where two headings read alike, the source gives them in different places.

How the values were obtained:
rhodopsin [1] = assay: Rhodopsin regeneration after topical eye drops in mice; format: in vivo, Balb/c mice; conditions: for % of Rhodopsin recovery: 5% in eye drop at 6, 3 and 0 h before dark adaptation, LA + 1 h DA, DA control = 100; for inhibition of rhodopsin regeneration as eye drop: eye drop formulation, summary of Table 7
Description: Panel A: Application scheme and harvesting of the eye. 3 h group received 2 applications and 6 h group received 3 applications. Panel B: Rhodopsin content was measured as pmole/eye. In 1 h in the dark, untreated eyes (NT-LA 1 h DA, no treatment-light adapted followed by 1 hour dark adaptation) and vehicle-treated eyes recovered 75-80% rhodopsin [dark-adapted (DA) control is 100%], whereas 3 h PBN recovered only 43% and 6 h PBN only 29%. (***P<0.0001 compared to vehicle, n=8; ##p<0.005 between 3 h and 6 h group, n=8).
An eye drop formulation was used with various absorption enhancers for topical application of PBN to mouse eyes. […] One hour dark adaptation followed by light causes 75-80% recovery of bleachable rhodopsin in the Balb/c mice (FIG. 18B, NT-LA 1 h DA). The eye drop without PBN (vehicle) had no effect on rhodopsin regeneration (FIG. 18B, vehicle).
Eye drop formulations were prepared as described in Example 7 and contained 5% or 10% of a PBN derivative. The eye drop formulations were applied to Balb/c mice by the 6 h group application scheme shown in FIG. 18A, in which the eye drops were applied at 6, 3, and 0 h before dark adaptation. The eye drops were applied to completely light-adapted mouse eyes, and the mice were then moved to the dark for 1 h to allow the regeneration of bleachable rhodopsin. One hour dark adaptation followed by light causes […] recovery of bleachable rhodopsin in untreated mice (00, No Treatment). The eye drop without any nitrones (vehicle) had no effect on rhodopsin regeneration (000, vehicle).

rhodopsin [2] = assay: Rhodopsin regeneration after bleach in rats, IP nitrone; format: in vivo, rat; conditions: Rattus norvegicus; rats, 50 mg/kg IP, 2 h room light then 2.5 h dark adaptation
Description: FIG. 10 graphically illustrates the effects of three PBN analogs of rhodopsin regeneration. Rhodopsin content was measured as nmole/retina following the procedure as in Mandal et al. (J Biol. Chem. 2011. 286 (37):32491-501). After injection with PBN derivatives or vehicles (saline), rats were left in room light for 2 hours (light adapted or LA) and then moved to dark. At 2.5 hours dark adaptation (DA), retinas were harvested. DA-Control, Dark adapted (12 h) control retina without any treatment to show normal rhodopsin content.
Measurement of rhodopsin regeneration—To measure the effect of PBN on the rate of rhodopsin regeneration, dark-adapted rats were injected intraperitoneally with PBN (50 mg/kg) or PBS 0.5 hour prior to a 2 hour bleach in room light (˜400 lux). Immediately following the bleach (time=0 minutes), a group of PBN- and vehicle-treated rats were killed, and retinas were removed and snap frozen. The remaining rats were dark-adapted, and retinas were collected under dim red light at 45, 90, and 180 minutes after the bleach.
Rhodopsin measurements were performed as described previously (2,36) with slight modification. Briefly, under dim red light, each retina was homogenized in 450 μl of buffer containing 10 mM Tris-HCl (pH 7.4), 150 mM NaCl, 1 mM EDTA, 2% (w/v) octylglucoside, and 50 mM hydroxylamine. Homogenates were centrifuged at 16,000 g, and soluble lysates were scanned from 270-800 nm in a spectrophotometer (Ultrospec 3000 UV/Vis Spectrophotometer, GE Healthcare, Piscataway, N.J.). Samples were then bleached under room light for 10 minutes and scanned again. The difference spectra at 500 nm between pre- and post-bleached samples were used to determine rhodopsin content using a molar extinction coefficient of […] (37). The values were normalized to the total lysate volume, and data are presented as rhodopsin content/retina.

RPE65 isomerohydrolase = molecular target: T1, RPE65 isomerohydrolase (Bos taurus, UniProt Q28175); assay: In vitro RPE65 isomerohydrolase assay with bovine RPE microsomes (Example 3); format: biochemical; conditions: for RPE65 inhibition compared with PBN: summary of Table 1
T1 construct: Bovine RPE microsomes were used as a source of the RPE65 protein; from tissue; host or cells: bovine RPE microsomes
T1 sequence (Q28175 whole entry): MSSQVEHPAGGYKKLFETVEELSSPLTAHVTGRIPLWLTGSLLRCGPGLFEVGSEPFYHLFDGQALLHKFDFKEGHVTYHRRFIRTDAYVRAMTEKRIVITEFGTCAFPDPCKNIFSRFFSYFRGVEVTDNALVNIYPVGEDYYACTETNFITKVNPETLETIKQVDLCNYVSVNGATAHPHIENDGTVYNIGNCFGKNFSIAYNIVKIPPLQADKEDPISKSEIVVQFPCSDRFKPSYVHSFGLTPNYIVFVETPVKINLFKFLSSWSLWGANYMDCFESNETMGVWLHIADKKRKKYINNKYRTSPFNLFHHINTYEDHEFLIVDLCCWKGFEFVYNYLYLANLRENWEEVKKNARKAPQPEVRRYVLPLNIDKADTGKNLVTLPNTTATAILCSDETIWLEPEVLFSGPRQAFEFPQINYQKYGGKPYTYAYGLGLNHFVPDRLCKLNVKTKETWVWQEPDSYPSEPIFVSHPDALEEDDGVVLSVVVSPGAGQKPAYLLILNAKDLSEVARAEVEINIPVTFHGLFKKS
Text: In this Example, the effect of several PBN analogs on RPE65 isomerohydrolase activity was investigated in an in vitro assay. The chemical structures of the PBN analogs utilized are described herein above. Bovine RPE microsomes were used as a source of the RPE65 protein and all-trans-[^3H] retinol was a substrate for the isomerohydrolase assay. The produced 11-cis-[^3H] retinol was quantified by normal phase HPLC with flow scintillation analyzer. The inhibition of isomerohydrolase activity was dependent on the PBN analog's concentration.
FIG. 9 also illustrates the calculation of IC50 values for the two difluoro-PBN analogs. IC50 values are the concentration of the inhibitor that inhibits 50% of the enzymatic activity. Therefore, the smaller the IC50 value, the better the drug.

Rat Retina = assay: Light-induced retinal degeneration in rats, systemic (IP) nitrone; ERG and ONL histology; conditions: for A-Wave value at 4 cd·sec/m^2 / B-Wave value at 4 cd·sec/m^2 / A-Wave value at 400 cd·sec/m^2 / B-Wave value at 400 cd·sec/m^2 / % Protection (A-Wave at 4 cd·sec/m^2) / % Protection (A-Wave at 400 cd·sec/m^2) / % Protection (B-Wave at 4 cd·sec/m^2) / % Protection (B-Wave at 400 cd·sec/m^2) / ONL Thickness (μm) Inferior retina / ONL Thickness (μm) Superior retina: 50 mg/kg IP 0.5 h before 2,700 lux 6 h; for A-Wave value at 4 cd·sec/m^2 / B-Wave value at 4 cd·sec/m^2: ERG flash 4.0 cd·sec/m^2 (mostly rod function); for A-Wave value at 400 cd·sec/m^2 / B-Wave value at 400 cd·sec/m^2: ERG flash 400.0 cd·sec/m^2 (rod and cone function); for % Protection (A-Wave at 4 cd·sec/m^2) / % Protection (A-Wave at 400 cd·sec/m^2) / % Protection (B-Wave at 4 cd·sec/m^2) / % Protection (B-Wave at 400 cd·sec/m^2) / % Protection (ONL, Inferior retina) / % Protection (ONL, Superior retina): NLD = 100, Saline LD = 0; for ONL Thickness (μm) Inferior retina / ONL Thickness (μm) Superior retina: histology; for protection of retinal function (ERG A- and B-wave) / protective effect on retinal photoreceptors compared with PBN: 50 mg/kg IP; for protection of retinal function (ERG A- and B-wave): FIGS. 11-12; for protective effect on retinal photoreceptors compared with PBN: ONL histology (FIGS. 14-16)
Description: Consistent with previous publications (1-2,5), a dose of 50 mg/kg PBN and S-PBN dissolved in saline was chosen for intraperitoneal injection in the rats in the treatment group. An equal volume of saline was injected into control rats.
A light-stress paradigm of 2,700 lux for 6 hours was used to test the effect of PBN at different time points before (0.5 hour, 3 hours, 6 hours, 12 hours, 16 hours, and 24 hours) or after (0.5 hour and 3 hours) light exposure. The effect of S-PBN was tested using the same dose and protocol of PBN at 0.5 hours before light exposure.
Electroretinography—After light exposure, rats were returned to their dim cyclic light (5-10 lux) environment for 7 days before ERG recordings were performed. Flash ERGs were recorded with the Diagnosys Espion E2 ERG System (Diagnosys, LLC, Lowell, Mass.). Rats were maintained in total darkness overnight and prepared for ERG recording under dim red light. They were anesthetized with ketamine (120 mg/kg body weight) and xylazine (6 mg/kg body weight) intramuscularly (IM). One drop of 10% (v/v) phenylephrine was applied to the cornea to dilate the pupil, and one drop of 0.5% (v/v) proparacaine HCl was applied for local anesthesia. Rats were kept on a heating pad at 37° C. during recordings. A gold electrode was placed on the cornea, a reference electrode was positioned in the mouth, and a ground electrode was placed on the foot; rats were then placed inside a Ganzfeld illuminating sphere. Responses were differentially amplified, averaged, and stored. For the assessment of rod photoreceptor function (scotopic ERG), five strobe flash stimuli were presented at flash intensities at −2.3, −1.3, 0.7, and 2.7 log cd·s/m^2. The amplitude of the a-wave was measured from the pre-stimulus baseline to the a-wave trough. The amplitude of the b-wave was measured from the trough of the a-wave to the peak of the b-wave. For the evaluation of cone function (photopic ERG), a strobe flash stimulus (3.3 log cd·s/m^2) was presented to dilated, light-adapted (5 minutes at 1.7 log cd·s/m^2) rats. The amplitude of the cone b-wave was measured from the trough of the a-wave to the peak of the b-wave.
Histology—After ERG recordings, rats were killed by carbon dioxide asphyxiation for light microscopic evaluation of retinal structure. Immediately after death, eyes were excised, placed in fixative (4% (w/v) paraformaldehyde, 2% (v/v) trichloroacetic acid, 20% (v/v) isopropyl alcohol, 2% (v/v) zinc chloride, and 72% (v/v) distilled water), and embedded in paraffin. Sections of 5 μm were cut along the vertical meridian through the optic nerve and stained with hematoxylin and eosin (H&E).
The PBN derivatives were injected intraperitoneally (IP) into albino SD rats at 50 mg/kg body weight at 0.5 hours before the start of light-damage exposure at 2,700 lux for 6 hours. After the exposure, the rats were moved to their dim cyclic room to recover for a week. Retinal damage/protection was assessed by functional analysis by ERG and structural analysis of histological sections. Dark adapted (12 hour) and Light adapted (for 2 hour) retinas were utilized as controls.

[3] = apparent IC50, bovine RPE microsomes, all-trans-[3H] retinol substrate (Table 1), read-out: IC50 Values for the Inhibition of RPE65 Isomerohydrolase Reaction
[4] = in vitro RPE65 isomerohydrolase IC50 values repeated in Table 7, read-out: IC50

For `CC(C)(C)/[N+]([O-])=C/c1ccc(F)cc1` [Compound 2, 4-Fluorophenyl t-butyl nitrone], the “% of Rhodopsin recovery” value (rhodopsin [1]) was 81.15%, the “inhibition of rhodopsin regeneration as eye drop” value (from here on “inhibition … as eye drop”) (rhodopsin [1]) was “not effective at inhibiting rhodopsin regeneration” and the inhibition at 50 mg/kg (rhodopsin [2]) was 88%. For the same compound, the IC50 (RPE65 isomerohydrolase; [3]) was 60 µM, the IC50 (RPE65 isomerohydrolase; [4]) was 60 µM and the “RPE65 inhibition compared with PBN” value (RPE65 isomerohydrolase) was “more effective at inhibiting RPE65 activity than the native PBN molecule”. For the same compound, the “A-Wave value at 4 cd·sec/m^2” value (Rat Retina) was 163.0, the “B-Wave value at 4 cd·sec/m^2” value (Rat Retina) was 572.4 and the “A-Wave value at 400 cd·sec/m^2” value (Rat Retina) was 295.7. The “B-Wave value at 400 cd·sec/m^2” value (Rat Retina) was 762.6, the “% Protection (A-Wave at 4 cd·sec/m^2)” value (Rat Retina) was 90.4% and the “% Protection (A-Wave at 400 cd·sec/m^2)” value (Rat Retina) was 102.3%. The “% Protection (B-Wave at 4 cd·sec/m^2)” value (Rat Retina) was 79.5%, the “% Protection (B-Wave at 400 cd·sec/m^2)” value (Rat Retina) was 99.8% and the “ONL Thickness (μm) Inferior retina” value (Rat Retina) was 42.4 ± 1.3 μm. For the same compound, the “ONL Thickness (μm) Superior retina” value (Rat Retina) was 42.0 ± 1.4 μm, the “protection of retinal function (ERG A- and B-wave)” value (Rat Retina) was “protected retinal function significantly” and the “protective effect on retinal photoreceptors compared with PBN” value (Rat Retina) was “comparable to PBN, and even appears to provide more protection than PBN”. The “% Protection (ONL, Inferior retina)” value (Rat Retina) was 100% and the “% Protection (ONL, Superior retina)” value (Rat Retina) was 96.2%.

Work on `CC(C)(C)/[N+]([O-])=C/c1cccc(F)c1` [Compound 8, 3-Fluorophenyl t-butyl nitrone] yielded an IC50 (RPE65 isomerohydrolase; [3]) of 280 µM and an IC50 (RPE65 isomerohydrolase; [4]) of 280 µM.

Work on `CC(C)(C)/[N+]([O-])=C/c1ccccc1F` [Compound 7, 2-Fluorophenyl t-butyl nitrone] yielded an IC50 (RPE65 isomerohydrolase; [3]) of 1300 µM and an IC50 (RPE65 isomerohydrolase; [4]) of 1300 µM.

For `Cc1ccc(/C=[N+](\[O-])C(C)(C)C)cc1` [Compound 4, 4-Methylphenyl t-butyl nitrone], the “% of Rhodopsin recovery” value (rhodopsin [1]) was 32.54%, the “inhibition … as eye drop” value (rhodopsin [1]) was “more effective in inhibiting rhodopsin regeneration than PBN” and the inhibition at 50 mg/kg (rhodopsin [2]) was 54%. The IC50 (RPE65 isomerohydrolase; [3]) was 100 µM, the IC50 (RPE65 isomerohydrolase; [4]) was 100 µM and the “A-Wave value at 4 cd·sec/m^2” value (Rat Retina) was 126.4. The “B-Wave value at 4 cd·sec/m^2” value (Rat Retina) was 369.9, the “A-Wave value at 400 cd·sec/m^2” value (Rat Retina) was 191.3 and the “B-Wave value at 400 cd·sec/m^2” value (Rat Retina) was 443.9. For the same compound, the “% Protection (A-Wave at 4 cd·sec/m^2)” value (Rat Retina) was 65.9%, the “% Protection (A-Wave at 400 cd·sec/m^2)” value (Rat Retina) was 63.6% and the “% Protection (B-Wave at 4 cd·sec/m^2)” value (Rat Retina) was 48.1%. For the same compound, the “% Protection (B-Wave at 400 cd·sec/m^2)” value (Rat Retina) was 54.7%, the “ONL Thickness (μm) Inferior retina” value (Rat Retina) was 36.2 ± 1.0 μm and the “ONL Thickness (μm) Superior retina” value (Rat Retina) was 35.2 ± 1.2 μm. The “protection of retinal function (ERG A- and B-wave)” value (Rat Retina) was “protected retinal function significantly”, the “protective effect on retinal photoreceptors compared with PBN” value (Rat Retina) was “slightly lower than that observed for PBN” and the “% Protection (ONL, Inferior retina)” value (Rat Retina) was 79.7%. For the same compound, the “% Protection (ONL, Superior retina)” value (Rat Retina) was 79.1%.

In the case of `CC(C)(C)/[N+]([O-])=C/c1ccc(F)c(F)c1` [Compound 10, 3,4-Difluorophenyl t-butyl nitrone], the “% of Rhodopsin recovery” value (rhodopsin [1]) is reported as 39.31%, the “inhibition … as eye drop” value (rhodopsin [1]) is reported as “more effective in inhibiting rhodopsin regeneration than PBN” and the IC50 (RPE65 isomerohydrolase; [3]) is reported as 50 µM. For the same compound, the IC50 (RPE65 isomerohydrolase; [4]) was 50 µM and the “RPE65 inhibition compared with PBN” value (RPE65 isomerohydrolase) was “more effective at inhibiting RPE65 activity than the native PBN molecule”.
